Assay type in all cases: cell-based
The target of one experiment is T1, adenosine A2a receptor (Homo sapiens, UniProt P29274).
T1 construct: expressed in transfected cells; host or cells: CHO (Chinese Hamster Ovary)
The experiment can be described thus: Indirect determination of adenosine agonism by gene expression (luciferase reporter), A2a cells. Particulars: CHO cells stably transfected with A2a receptor cDNA; 50% of maximum stimulation. An excerpt: (§1) Cells of the CHO (Chinese Hamster Ovary) permanent cell line are transfected stably with the cDNA for the adenosine receptor subtypes A1, A2a and A2b. The adenosine A1 receptors are coupled to the adenylate cyclase by way of Gi proteins, while the adenosine A2a and A2b receptors are coupled by way of Gs proteins. In correspondence with this, the formation of cAMP in the cell is inhibited or stimulated, respectively. After that, expression of the luciferase is modulated by way of a cAMP-dependent promoter. The luciferase test is optimized, with the aim of high sensitivity and reproducibility, low variance and good suitability for implementation on a robot system, by varying several test parameters, such as cell density, duration of the growth phase and the test incubation, forskolin concentration and medium composition. The following test protocol is used for pharmacologically characterizing cells and for the robot-assisted substance screening:
(§2) The stock cultures are grown, at 37° C. and under 5% CO2, in DMEM/F12 medium containing 10% FCS (fetal calf serum) and in each case split 1:10 after 2-3 days. The test cultures are seeded in 384-well plates with 2000 cells per well and grown at 37° C. for approx. 48 hours. The medium is then replaced with a physiological sodium chloride solution (130 mM sodium chloride, 5 mM potassium chloride, 2 mM calcium chloride, 20 mM HEPES, 1 mM magnesium chloride hexahydrate, 5 mM sodium bicarbonate, pH 7.4). The substances to be tested, which are dissolved in DMSO, are pipetted into the test cultures (maximum final concentration of DMSO in the test mixture: 0.5%) in a dilution series of from 5×10^−11M to 3×10^−6M (final concentration). 10 minutes later, forskolin is added to the A1 cells and all the cultures are subsequently incubated at 37° C. for four hours. After that, 35 μl of a solution which is composed of 50% lysis reagent (30 mM disodium hydrogenphosphate, 10% glycerol, 3% TritonX100, 25 mM TrisHCl, 2 mM dithiotreitol (DTT), pH 7.8) and 50% luciferase substrate solution (2.5 mM ATP, 0.5 mM luciferin, 0.1 mM coenzyme A, 10 mM tricine, 1.35 mM magnesium sulfate, 15 mM DTT, pH 7.8) are added to the test cultures, which are shaken for approx. 1 minute and the luciferase activity is measured using a camera system. The EC50 values are determined, i.e., the concentrations at which 50% of the luciferase answer is inhibited in the case of the A1 cell, and, respectively, 50% of the maximum stimulation with the corresponding substance is achieved in the case of the A2b and A2a cells. […] Pharmacol., 357 (1998), 1-9].
For orientation: A reporter such as luciferase makes a cellular process visible.

The next experiment deals with T2, adenosine A1 receptor (Homo sapiens, UniProt P30542).
T2 construct: expressed in transfected cells; host or cells: CHO (Chinese Hamster Ovary)
T2 sequence (P30542 1-326): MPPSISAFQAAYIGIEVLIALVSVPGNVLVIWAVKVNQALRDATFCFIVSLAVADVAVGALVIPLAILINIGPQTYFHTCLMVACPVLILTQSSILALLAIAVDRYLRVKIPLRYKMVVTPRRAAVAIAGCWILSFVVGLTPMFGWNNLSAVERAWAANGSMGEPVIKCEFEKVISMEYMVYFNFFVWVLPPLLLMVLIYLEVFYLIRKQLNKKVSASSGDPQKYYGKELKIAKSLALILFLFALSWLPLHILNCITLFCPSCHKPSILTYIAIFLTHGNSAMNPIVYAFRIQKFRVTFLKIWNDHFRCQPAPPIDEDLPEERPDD
The experiment can be described thus: Indirect determination of adenosine agonism by gene expression (luciferase reporter), A1 cells. As to conditions: CHO cells stably transfected with A1 receptor cDNA; 1 μM forskolin; 50% inhibition of luciferase answer.
Text: as §1, §2

The next experiment addresses T3, adenosine A2b receptor (Homo sapiens, UniProt P29275).
T3 construct: expressed in transfected cells; host or cells: CHO (Chinese Hamster Ovary)
T3 sequence (P29275 1-332): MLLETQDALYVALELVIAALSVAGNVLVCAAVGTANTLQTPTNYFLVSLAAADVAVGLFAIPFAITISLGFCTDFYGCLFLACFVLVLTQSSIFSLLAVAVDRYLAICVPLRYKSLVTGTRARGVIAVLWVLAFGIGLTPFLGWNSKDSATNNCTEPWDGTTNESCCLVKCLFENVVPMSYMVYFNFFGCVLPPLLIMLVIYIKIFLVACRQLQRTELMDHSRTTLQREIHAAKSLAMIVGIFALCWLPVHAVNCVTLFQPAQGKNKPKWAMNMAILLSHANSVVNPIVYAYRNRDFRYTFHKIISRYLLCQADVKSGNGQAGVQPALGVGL
The experiment can be described thus: Indirect determination of adenosine agonism by gene expression (luciferase reporter), A2b cells. Particulars: CHO cells stably transfected with A2b receptor cDNA; 50% of maximum stimulation.
Text: as §1, §2

Broadly, the EC50 is the concentration giving half of the maximal effect.

T1 sequence (P29274 whole entry): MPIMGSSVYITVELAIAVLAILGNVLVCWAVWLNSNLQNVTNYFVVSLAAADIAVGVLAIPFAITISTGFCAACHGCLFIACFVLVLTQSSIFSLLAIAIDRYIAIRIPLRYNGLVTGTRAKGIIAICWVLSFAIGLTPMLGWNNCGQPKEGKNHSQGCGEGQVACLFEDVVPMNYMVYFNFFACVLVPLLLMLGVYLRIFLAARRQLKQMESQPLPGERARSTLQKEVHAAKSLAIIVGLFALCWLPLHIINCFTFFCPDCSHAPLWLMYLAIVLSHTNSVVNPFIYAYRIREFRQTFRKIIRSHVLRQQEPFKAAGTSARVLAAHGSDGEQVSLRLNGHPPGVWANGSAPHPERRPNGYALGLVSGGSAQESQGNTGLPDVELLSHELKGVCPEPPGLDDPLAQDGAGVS

Take `N#Cc1c(N)nc(SCc2csc(-c3ccc(Cl)cc3)n2)c(C#N)c1-c1ccc(O[C@H]2COC[C@@H]2O)cc1` (racemic) [Example 24, rac-trans-2-Amino-6-({[2-(4-chlorophenyl)-1,3-thiazol-4-yl]methyl}thio)-4-(4-{[4-hydroxytetrahydrofuran-3-yl]oxy}phenyl)pyridine-3,5-dicarbonitrile]: the EC50 at adenosine A2a receptor is 506 nM; on adenosine A1 receptor, 0.14 nM.

In the case of `N#Cc1c(N)nc(SCc2cccnc2)c(C#N)c1-c1ccc(O[C@H]2CCC[C@H]2O)cc1` (racemic) [Example 41, rac-cis-2-Amino-4-(4-{[2-hydroxycyclopentyl]oxy}phenyl)-6-[(pyridin-3-ylmethyl)sulfanyl]pyridine-3,5-dicarbonitrile], the results for the EC50 on adenosine A2a receptor, at adenosine A2b receptor and at adenosine A1 receptor were 480 nM, 11 nM and 2.9 nM, respectively.

As to `Cc1oc(-c2ccc(C(=O)O)cc2)nc1CSc1nc(N)c(C#N)c(-c2ccc(OC3CCOC3)cc2)c1C#N` (racemic) [Example 49, rac-4-{4-[({6-Amino-3,5-dicyano-4-[4-(tetrahydrofuran-3-yloxy)phenyl]pyridin-2-yl}thio)methyl]-5-methyl-1,3-oxazol-2-yl}benzoic acid], the EC50 on adenosine A2a receptor came out at 782 nM; at adenosine A1 receptor, 0.22 nM.

Turning to `N#Cc1c(N)nc(SCc2csc(C(N)=O)n2)c(C#N)c1-c1ccc(OC2CCOC2)cc1` (racemic) [Example 50, rac-4-[({6-Amino-3,5-dicyano-4-[4-(tetrahydrofuran-3-yloxy)phenyl]pyridin-2-yl}sulfanyl)methyl]-1,3-thiazole-2-carboxamide], the EC50 was determined as 1100 nM at adenosine A2a receptor, 556 nM at adenosine A2b receptor and 0.78 nM on adenosine A1 receptor.

Take `CNC(=O)c1nc(CSc2nc(N)c(C#N)c(-c3ccc(OC4CCOC4)cc3)c2C#N)cs1` (racemic) [Example 51, rac-4-[({6-Amino-3,5-dicyano-4-[4-(tetrahydrofuran-3-yloxy)phenyl]pyridin-2-yl}sulfanyl)methyl]-N-methyl-1,3-thiazole-2-carboxamide]: the EC50 on adenosine A2a receptor was found to be 261 nM; at adenosine A2b receptor, 177 nM; at adenosine A1 receptor, 0.51 nM.

Take `N#Cc1ccccc1CSc1nc(N)c(C#N)c(-c2ccc(O[C@H]3CCCC[C@@H]3O)cc2)c1C#N` (single isomer, unassigned) [Example 23, ent-trans-2-Amino-6-[(2-cyanobenzyl)sulfanyl]-4-(4-{[2-hydroxycyclohexyl]oxy}-phenyl)pyridine-3,5-dicarbonitrile]: the EC50 at adenosine A2a receptor stood at 518 nM; on adenosine A2b receptor it was 6.9 nM; on adenosine A1 receptor it was 168 nM.

For `N#Cc1c(SCc2csc(-c3ccc(Cl)cc3)n2)nc(N2CC(O)C2)c(C#N)c1-c1ccc(O[C@H]2COC[C@@H]2O)cc1` (single isomer, unassigned) [Example 29, ent-trans-2-({[2-(4-Chlorophenyl)-1,3-thiazol-4-yl]methyl}sulfanyl)-6-(3-hydroxyazetidin-1-yl)-4-(4-{[4-hydroxytetrahydrofuran-3-yl]oxy}phenyl)pyridine-3,5-dicarbonitrile], the EC50 on adenosine A2a receptor was found to be 1270 nM; on adenosine A1 receptor, 0.18 nM.

Consider `N#Cc1c(N)nc(SCc2ccccn2)c(C#N)c1-c1ccc(O[C@H]2COC[C@@H]2O)cc1` (single isomer, unassigned) [Example 32, ent-trans-2-Amino-4-(4-{[4-hydroxytetrahydrofuran-3-yl]oxy}phenyl)-6-[(pyridin-2-ylmethyl)thio]pyridine-3,5-dicarbonitrile], for which the EC50 amounted to 144 nM on adenosine A2a receptor, 720 nM on adenosine A2b receptor and 0.86 nM at adenosine A1 receptor.

As to `N#Cc1c(N)nc(SCc2csc(Nc3ccc(F)cc3)n2)c(C#N)c1-c1ccc(O[C@H]2COC[C@@H]2O)cc1` (single isomer, unassigned) [Example 35, ent-trans-2-Amino-6-[({2-[(4-fluorophenyl)amino]-1,3-thiazol-4-yl}methyl)thio]-4-(4-{[4-hydroxytetrahydrofuran-3-yl]oxy}phenyl)pyridine-3,5-dicarbonitrile], the figures for the EC50 at adenosine A2a receptor, at adenosine A2b receptor and at adenosine A1 receptor were 874 nM, 43 nM and 0.56 nM, respectively.

With `COC(=O)c1cccc(C(C)Sc2nc(N)c(C#N)c(-c3ccc(OC4CCOC4)cc3)c2C#N)c1` (single isomer, unassigned; ent-3) [Example 64, Methyl ent-3-[1-({6-amino-3,5-dicyano-4-[4-(tetrahydrofuran-3-yloxy)phenyl]pyridin-2-yl}sulfanyl)ethyl]benzoate], a half-maximal response on adenosine A1 receptor (EC50) required 4.1 nM.

`CC(Sc1nc(N)c(C#N)c(-c2ccc(OC3CCOC3)cc2)c1C#N)c1cccc(C(N)=O)c1` (single isomer, unassigned; ent-3) [Example 66, ent-3-[1-({6-Amino-3,5-dicyano-4-[4-(tetrahydrofuran-3-yloxy)phenyl]pyridin-2-yl}-sulfanyl)ethyl]benzamide]: the EC50 at adenosine A2b receptor stood at 1780 nM; at adenosine A1 receptor, 0.53 nM.

Regarding `N#Cc1c(N)nc(SCc2cccnc2)c(C#N)c1-c1ccc(O[C@H]2CCCC[C@@H]2O)cc1` [Example 8], the EC50 on adenosine A2a receptor turned out to be 497 nM; at adenosine A2b receptor it was 2.4 nM; at adenosine A1 receptor, 6.9 nM.

Take `N#Cc1c(N)nc(SCc2csc(N)n2)c(C#N)c1-c1ccc(O[C@H]2CCCC[C@@H]2O)cc1` [Example 9]: the values for the EC50 on adenosine A2b receptor and at adenosine A1 receptor were 3.9 nM and 104 nM, respectively.

Regarding `N#Cc1c(N)nc(SCc2c[nH]cn2)c(C#N)c1-c1ccc(O[C@H]2CCCC[C@@H]2O)cc1` [Example 10], the values for the EC50 at adenosine A2b receptor and at adenosine A1 receptor were 4.3 nM and 265 nM, respectively.

Turning to `N#Cc1c(N)nc(SCc2cscn2)c(C#N)c1-c1ccc(O[C@H]2CCCC[C@@H]2O)cc1` [Example 14], the EC50 on adenosine A2a receptor was 1920 nM; on adenosine A2b receptor it was 16 nM; on adenosine A1 receptor it was 56 nM.

Turning to `N#Cc1c(N)nc(SCc2cccc(C(N)=O)c2)c(C#N)c1-c1ccc(OC2CCOC2)cc1` (stereo not shown) [Example 43], the EC50 was 424 nM at adenosine A2a receptor, 537 nM at adenosine A2b receptor and 0.16 nM on adenosine A1 receptor.

Take `CNC(=O)c1cc(CSc2nc(N)c(C#N)c(-c3ccc(OC4CCOC4)cc3)c2C#N)ccn1` (stereo not shown) [Example 44]: the EC50 on adenosine A2a receptor was 69 nM; on adenosine A2b receptor, 234 nM; on adenosine A1 receptor, 0.08 nM.

Take `N#Cc1c(N)nc(SCc2cccc(C(N)=O)c2)c(C#N)c1-c1ccc(OC2CCOC2)c(F)c1` (stereo not shown) [Example 58]: the EC50 on adenosine A2a receptor worked out at 909 nM; at adenosine A2b receptor, 1010 nM; on adenosine A1 receptor it was 0.63 nM.

The values above are taken from patent US20110021487A1, “CYCLOALKOXY-SUBSTITUTED 4-PHENYL-3,5-DICYANOPYRIDINES AND THEIR USE” (BAYER SCHERING PHARMA AKTIENGESELLSCHAFT, priority 2008, published 2011).
